These are literature values, as cited in patent US20110144044A1, “Composition and method for increasing post workout recovery” (priority 2009, published 2011).

For one data set, the system named is rats. The settings on record: CNS administration.
The mark [1] stands for this setting: after caffeine ingestion 6 mg/kg, intense exercise.

For the compound `CCNC(=O)[C@H]1O[C@@H](n2cnc3c(N)ncnc32)[C@H](O)[C@@H]1O` [NECA, 5′-N-ethylcarboxamidoadenosine], the “run time to fatigue” value in the data set with rats is given as “significantly reduced run time to fatigue”.
Take `Cn1c(=O)c2c(ncn2C)n(C)c1=O` [caffeine]: in the data set with subjects (setting [1]), the muscle lactate concentration entry was “increased”, the net muscle glycogenolysis result was “unaffected” and the plasma epinephrine concentration entry was “increased”. Moreover, the endurance entry in the data set on subjects (caffeine 6 mg/kg ingested vs placebo, cycling to voluntary exhaustion) is “significant increase in endurance”. Besides, in the data set with rats, the “increase in treadmill run time to fatigue” value is on record as “approximately 60%”.
